# Reference: PubChem BioAssay (NCI)
# “And” between values parts separate entries of the source, which are not always exact repeats. Equal values may be shown once.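 Dose response: 5 concentrations. Exposure: 48 h. Format: 96-well plates. Endpoint: linear interpolation; highest concentration if not reached. GI50 is the concentration that inhibits growth by half. TGI denotes the concentration required for complete inhibition of growth.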
# Legend:
# Test in all cases: NCI-60 cell line screen, 48 h
# ACHN renal = test system: ACHN renal
# K-562 leukemia = test system: K-562 leukemia
# SK-MEL-28 melanoma = test system: SK-MEL-28 melanoma
# UO-31 renal = test system: UO-31 renal
# BT-549 breast = test system: BT-549 breast
# SR leukemia = test system: SR leukemia
# SF-268 CNS = test system: SF-268 CNS
# MOLT-4 leukemia = test system: MOLT-4 leukemia
# OVCAR-8 ovarian = test system: OVCAR-8 ovarian
# NCI-H522 lung = test system: NCI-H522 lung
SMILES,GI50 (ACHN renal),TGI (ACHN renal),GI50 (K-562 leukemia),TGI (K-562 leukemia),GI50 (SK-MEL-28 melanoma),TGI (SK-MEL-28 melanoma),GI50 (UO-31 renal),TGI (UO-31 renal),GI50 (BT-549 breast),TGI (BT-549 breast),GI50 (SR leukemia),TGI (SR leukemia),GI50 (SF-268 CNS),TGI (SF-268 CNS),GI50 (MOLT-4 leukemia),TGI (MOLT-4 leukemia),GI50 (OVCAR-8 ovarian),TGI (OVCAR-8 ovarian),GI50 (NCI-H522 lung),TGI (NCI-H522 lung)
CCOC(=O)N[C@H]1CCc2c(Br)c(OC)c(OC)c(OC)c2-c2ccc(SC)c(=O)cc21,< 0.01 µM,15 µM,< 0.01 µM,> 38.2 µM,8.06 µM,23.4 µM,0.131 µM,15.2 µM,0.0115 µM,8.97 µM,< 0.01 µM,> 37.3 µM,0.0125 µM,15 µM,< 0.0108 µM,> 45.3 µM,0.0234 µM,> 56.4 µM,< 0.01 µM,10.1 µM
O=S(=O)(NCCNc1cc(-c2cn(-c3ccccc3)nc2-c2cccc(O)c2)ccn1)c1ccc(Cl)cc1,2.63 µM,10.3 µM,1.98 µM,5.4 µM,2.2 µM,5.42 µM,2.92 µM,12.1 µM,2.06 µM,7.65 µM,1.71 µM,5.07 µM,2.51 µM,8.94 µM,2.51 µM,7.37 µM,3.72 µM,22.6 µM,2.16 µM,5.79 µM
Cc1cc(C)n(C(=O)c2nn(-c3ccc(Cl)cc3)cc2O)n1,3.77 µM,> 100 µM,> 100 µM,> 100 µM,6.28 µM,> 100 µM,3.01 µM,19.2 µM,2.19 µM,26.3 µM,> 100 µM,> 100 µM,4.13 µM,> 100 µM,,,5.96 µM,> 100 µM,7.37 µM,50.7 µM
C#Cc1cccc(Oc2ccc(NC(=O)CCl)cc2)c1,> 82.5 µM,> 82.5 µM,34.4 µM,> 82.5 µM,> 82.5 µM,> 82.5 µM,> 82.5 µM,> 82.5 µM,37.2 µM,> 82.5 µM,11.5 µM,> 82.5 µM,> 82.5 µM,> 82.5 µM,10.8 µM,77.1 µM,64.3 µM,> 82.5 µM,33.5 µM,> 82.5 µM
CC1SC(c2c(Cl)cccc2Cl)N(NC(=O)C(O)c2ccccc2)C1=O (configuration not stated),92.2 µM,> 100 µM,39.9 µM,> 100 µM,> 100 µM,> 100 µM,> 100 µM,> 100 µM,> 100 µM,> 100 µM,34.9 µM,> 100 µM,> 100 µM,> 100 µM,> 100 µM,> 100 µM,> 100 µM,> 100 µM,60.9 µM,> 100 µM
COc1cc(-c2cc(/C=C3\C(=O)Nc4ccccc43)[nH]n2)cc(OC)c1OC,2.5 µM,12 µM,2.65 µM,11.5 µM,2.95 µM,11.3 µM,1.91 µM,12.2 µM,2.1 µM,6.58 µM,2.89 µM,14.8 µM,3.76 µM,17.2 µM,2.45 µM,6.71 µM,2.5 µM,7.48 µM,1.99 µM,6.3 µM
O=C(Nc1ccc(Cl)cc1)c1cc(S(=O)(=O)Nc2nnc(-c3ccccc3)c(-c3ccccc3)n2)c(SCc2ccccc2)cc1Cl,27.7 µM,> 61.5 µM,25 µM,> 100 µM,28.9 µM,> 73.6 µM,35.9 µM,> 100 µM,34.9 µM,> 70.5 µM,28.9 µM,> 57.3 µM,26.9 µM,> 68.3 µM,17.4 µM,> 60.4 µM,31.8 µM,> 71 µM,43.9 µM,> 71.2 µM
COc1ccc(-c2nnc(N3CCN(C(=O)CN4CCN(c5ccc(Cl)cc5)CC4)CC3)nc2-c2ccc(OC)cc2)cc1,22.9 µM,> 100 µM,15.2 µM,> 100 µM,> 100 µM,> 100 µM,6.92 µM,> 100 µM,8.88 µM,82.8 µM,31.5 µM,> 100 µM,> 100 µM,> 100 µM,6.53 µM,> 100 µM,35.8 µM,> 100 µM,22.4 µM,> 100 µM
NCCP(=O)(O)O,,> 100 µM,,> 100 µM,,> 100 µM,,> 100 µM,,> 100 µM,,> 100 µM,,> 100 µM,,> 100 µM,,> 100 µM,,> 100 µM
C[C@]12C3CC[C@@]4(CO)C[C@]3(CCC1[C@](C)(C(=O)O)CC[C@@H]2O)CC4=O (some centres not stated),> 100 µM,> 100 µM,> 100 µM,> 100 µM,> 100 µM,> 100 µM,> 100 µM,> 100 µM,> 100 µM,> 100 µM,> 100 µM,> 100 µM,> 100 µM,> 100 µM,> 100 µM,> 100 µM,> 100 µM,> 100 µM,> 100 µM,> 100 µM
NC(=S)N/N=C\c1nccc2c(N)cccc12,0.0977 µM,,0.497 µM,> 100 µM,1.16 µM,> 100 µM,0.298 µM,1.24 µM,0.836 µM,> 100 µM,0.0398 µM,> 35.8 µM,0.242 µM,,0.235 µM,> 100 µM,0.222 µM,,0.178 µM,0.509 µM
COc1cc(C2=NN(c3ccc(S(N)(=O)=O)cc3)C(c3ccc(Cl)cc3)C2)cc(OC)c1OC (configuration not stated),2.62 µM,9.27 µM,5.67 µM,> 100 µM,3.78 µM,> 100 µM,2.5 µM,> 100 µM,3.8 µM,46.4 µM,4.37 µM,> 100 µM,6.86 µM,> 100 µM,4.81 µM,> 100 µM,4.85 µM,> 100 µM,3.03 µM,> 100 µM
O=c1c2ccccc2nc(-c2ccccc2)n1O,,> 100 µM,,> 100 µM,,> 100 µM,,> 100 µM,,> 100 µM,,> 100 µM,,> 100 µM,,,,> 100 µM,,> 100 µM
COc1ccc(CC(NC(=O)[C@H](C)NC(=O)CN2CCOCC2)C(=O)N[C@@H](Cc2ccccc2)C(=O)[C@@]2(C)CO2)cc1 (some centres not stated),0.801 µM,> 33.5 µM,0.268 µM,,0.215 µM,0.586 µM,3.2 µM,15.2 µM,0.154 µM,0.391 µM,0.064 µM,,0.245 µM,0.708 µM,0.0572 µM,,0.342 µM,,0.278 µM,0.908 µM
COc1cc2cc(Oc3ccc(NC(=O)Nc4ccc(Cl)c(C(F)(F)F)c4)cc3)c(C)nc2cc1OC,1.07 µM,4 µM,1.11 µM,4.81 µM,1.41 µM,5.45 µM,0.924 µM,2.38 µM,0.981 µM,4.59 µM,0.831 µM,2.65 µM,1.55 µM,6.34 µM,1.14 µM,5.49 µM,1.04 µM,4.55 µM,0.773 µM,2.65 µM
C[C@@H](Oc1ccc2[nH]nc(/C=C/c3cnn(CCO)c3)c2c1)c1c(Cl)cncc1Cl,0.284 µM,> 100 µM,0.0249 µM,> 33.9 µM,1.72 µM,4.85 µM,0.217 µM,,0.142 µM,0.75 µM,0.0208 µM,1.1 µM,0.177 µM,1.49 µM,0.488 µM,3.34 µM,0.329 µM,> 32.1 µM,0.572 µM,2.49 µM
O=C1C(=O)c2ccccc2C(O)=C1CC=C(Cl)Cl,3.48 µM and 7.5 µM,23 µM and 187 µM and > 100 µM,0.987 µM and 3.19 µM,> 41.5 µM and 175 µM and > 100 µM,9.5 µM and 16.4 µM,60.4 µM and 161 µM and > 100 µM,15.8 µM and 7.26 µM,81.2 µM and 101 µM and > 100 µM,16.3 µM and 27.1 µM,94.6 µM and 139 µM and > 100 µM,0.924 µM and 4.89 µM,> 91.1 µM and 156 µM and > 100 µM,9.02 µM and 7.72 µM,202 µM and > 100 µM,0.828 µM and 4.68 µM,27.1 µM and 103 µM and > 100 µM,6.49 µM and 4.81 µM,206 µM and > 100 µM,8.02 µM,40.5 µM and 117 µM and 89.8 µM
[C-]#[N+][C@]12C(=O)[C@H](CCC1(C)C)C(C)(C)[C@H]1C(=O)N(C)c3cccc2c31,80.7 µM,> 100 µM,4.8 µM,> 100 µM,> 100 µM,> 100 µM,,,46.2 µM,> 100 µM,6.52 µM,> 100 µM,> 100 µM,> 100 µM,10.3 µM,> 100 µM,13.8 µM,> 100 µM,,
CN1CCN(CCNc2ccc(CO)c3sc4ccccc4c(=O)c23)CC1,,26.7 µM,,14.7 µM,,9.02 µM,,19.6 µM,4.83 µM,16.1 µM,,19 µM,,20.7 µM,,12.3 µM,,23.5 µM,,8.89 µM
CC(=O)/C=C/C1=C(c2cccs2)c2ccccc2CC1,22.5 µM,57.5 µM,32.5 µM,> 100 µM,22.4 µM,52.2 µM,25.7 µM,86.4 µM,32.6 µM,> 100 µM,23.6 µM,51.8 µM,,,,,38.9 µM,> 100 µM,25.1 µM,66.8 µM
O=C(O)c1cscc1Cc1cccs1,,> 100 µM,,> 100 µM,,> 100 µM,,,,> 100 µM,,> 100 µM,,> 100 µM,,> 100 µM,,> 100 µM,,> 100 µM
OCC#Cc1ccccc1C#Cc1ccc(C#Cc2ccccc2C#CCO)s1,19.1 µM,43.3 µM,64 µM,> 100 µM,20.5 µM,46.8 µM,18.1 µM,36 µM,16.8 µM,33.8 µM,36.9 µM,> 100 µM,20.6 µM,44.5 µM,,,21.2 µM,45.6 µM,11.7 µM,29.2 µM
COc1ccc2c(c1)cn1c3ccc(O)cc3[nH]c(=O)c21,0.112 µM,1.99 µM,,,0.147 µM,6.33 µM,0.264 µM,13.1 µM,2.73 µM,19.2 µM,0.0543 µM,2.7 µM,0.136 µM,19.1 µM,0.316 µM,6.95 µM,0.428 µM,2.82 µM,0.0442 µM,1.24 µM
CC(O)(CNS(=O)(=O)c1ccccc1)c1ccccc1 (configuration not stated),,> 100 µM,,> 100 µM,,> 100 µM,,> 100 µM,,> 100 µM,,> 100 µM,,> 100 µM,,,,> 100 µM,,> 100 µM
O=[N+]([O-])c1ccc(/C=C(/c2ccc([N+](=O)[O-])o2)S(=O)(=O)c2ccccc2)o1,,8.69 µM,,10.2 µM,,33.6 µM,,16.3 µM,,36.2 µM,,2.6 µM,,32.4 µM,,,,18.3 µM,,4.21 µM
CCOc1ccc2ccc3cccnc3c2n1,,> 100 µM,,> 100 µM,,> 100 µM,,> 100 µM,,> 100 µM,,73 µM,,> 100 µM,,,,> 100 µM,,> 100 µM
CCCCCCC#CC#Cc1cccc(=O)o1,1.84 µM,3.96 µM,7.33 µM,> 100 µM,3.22 µM,10.7 µM,3.26 µM,> 27.4 µM,0.556 µM,2.7 µM,,,2.69 µM,11.9 µM,2.31 µM,> 21 µM,1.14 µM,5.47 µM,1.8 µM,27.8 µM
O=C(NNS(=O)(=O)c1ccc(F)cc1)c1cccnc1Nc1ccc(Cl)cc1Cl,46.1 µM,> 100 µM,20.1 µM,83.2 µM,89.2 µM,> 100 µM,,,36 µM,> 100 µM,22.9 µM,67.6 µM,45.2 µM,> 100 µM,22.9 µM,> 100 µM,26.9 µM,> 100 µM,,
Cc1cc(C)c2c(SCc3ccc(Cl)cc3Cl)nc(N)nc2n1,,> 100 µM,,97.1 µM,,> 100 µM,,70.7 µM,,> 100 µM,,> 100 µM,,> 100 µM,,,,> 100 µM,,57.1 µM
